# Earlier results as cited in patent publication US20260373126A1, “COMPOSITIONS AND METHODS OF TREATING CANCER” (Board of Supervisors of Louisiana State University and …, priority 2022, published 2026).
# System: mitochondrial respiration
# Conditions: reference 2
compound,measurement,value
"CC(C)OC(=O)C(C)(C)Oc1ccc(C(=O)c2ccc(Cl)cc2)cc1 [FF, Fenofibrate]",mitochondrial respiration,blocked mitochondrial respiration
